Laboratory results from patent publication US9540379B2 (priority 2011, dated 2017).

biological target: T1, PDE10A (Homo sapiens (Human), UniProt Q9Y233); experiment: not given; settings: read-out: Inhibition of PDE10A, IC50
T1 sequence (Q9Y233 other isoform, or with tags, fused parts or gaps): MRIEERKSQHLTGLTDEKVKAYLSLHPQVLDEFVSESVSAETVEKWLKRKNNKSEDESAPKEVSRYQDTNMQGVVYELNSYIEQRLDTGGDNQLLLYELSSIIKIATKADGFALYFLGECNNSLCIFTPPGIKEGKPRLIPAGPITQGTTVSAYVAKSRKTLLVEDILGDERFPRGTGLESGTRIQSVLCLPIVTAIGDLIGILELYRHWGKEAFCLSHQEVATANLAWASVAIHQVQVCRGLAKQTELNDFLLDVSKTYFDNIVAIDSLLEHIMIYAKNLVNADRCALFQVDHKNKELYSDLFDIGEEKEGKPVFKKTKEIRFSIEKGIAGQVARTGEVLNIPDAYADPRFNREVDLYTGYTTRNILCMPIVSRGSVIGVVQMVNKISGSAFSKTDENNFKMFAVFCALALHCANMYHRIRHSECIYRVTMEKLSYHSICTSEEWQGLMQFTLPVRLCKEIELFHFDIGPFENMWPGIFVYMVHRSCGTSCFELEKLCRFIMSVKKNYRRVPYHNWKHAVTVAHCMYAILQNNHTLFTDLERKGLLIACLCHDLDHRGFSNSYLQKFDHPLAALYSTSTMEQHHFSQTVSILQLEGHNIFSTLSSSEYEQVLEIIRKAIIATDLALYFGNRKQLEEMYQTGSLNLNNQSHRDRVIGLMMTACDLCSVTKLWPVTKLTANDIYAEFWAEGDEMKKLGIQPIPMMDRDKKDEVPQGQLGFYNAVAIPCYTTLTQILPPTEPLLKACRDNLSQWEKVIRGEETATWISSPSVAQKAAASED

SMILES	IC50 [µM]
Cc1nc2ccc(Cl)cc2n2c(-c3ccccc3F)nnc12 [Example 2, 8-Chloro-1-(2-fluoro-phenyl)-4-methyl-[1,2,4]triazolo[4,3-a]quinoxaline]	0.214
COc1ccc2c(c1)nc(C)c1nnc(-c3ccccc3Cl)n12 [Example 74, 1-(2-Chloro-phenyl)-7-methoxy-4-methyl-[1,2,4]triazolo[4,3-a]quinoxaline]	0.068
Cc1nc2ccc(Cl)cc2n2c(-c3cc(OCCCCF)ccc3F)nnc12 [Example 17, 8-Chloro-1-[2-fluoro-5-(4-fluoro-butoxy)-phenyl]-4-methyl-[1,2,4]triazolo[4,3-a]quinoxaline]	> 1
CCCCOc1ccc(F)c(-c2nnc3c(C)nc4ccc(C(F)(F)F)cc4n23)c1 [Example 67, 1-(5-Butoxy-2-fluoro-phenyl)-4-methyl-8-trifluoromethyl-[1,2,4]triazolo[4,3-a]quinoxaline]	> 1
CCCCOc1ccc(Cl)c(-c2nnc3c(C)nc4ccc(F)cc4n23)c1 [Example 59, 1-(5-Butoxy-2-chloro-phenyl)-8-fluoro-4-methyl-[1,2,4]triazolo[4,3-a]quinoxaline]	> 1
Cc1nc2ccccc2n2c(-c3cc(OCCN4CCOCC4)ccc3Cl)nnc12 [Example 91, 1-[2-Chloro-5-(2-morpholin-4-yl-ethoxy)-phenyl]-4-methyl-[1,2,4]triazolo[4,3-a]quinoxaline]	> 1
COCCOc1ccc(F)c(-c2nnc3cnc4ccccc4n23)c1 [Example 109, 1-[2-Fluoro-5-(2-methoxy-ethoxy)-phenyl]-[1,2,4]triazolo[4,3-a]quinoxaline]	> 1
COc1ccc(CCOc2ccc3c(c2)nc(C)c2nnc(-c4ccccc4Cl)n23)cc1OC [Example 78, 1-(2-Chloro-phenyl)-7-[2-(3,4-dimethoxy-phenyl)-ethoxy]-4-methyl-[1,2,4]triazolo[4,3-a]quinoxaline]	0.048
Cc1nc2ccccc2n2c(-c3cc(OCCc4ccccc4)ccc3Cl)nnc12 [Example 49, 1-(2-Chloro-5-phenethyloxy-phenyl)-4-methyl-[1,2,4]triazolo[4,3-a]quinoxaline]	> 1
COc1ccc(Cl)c(-c2nnc3c(C)nc4ccc(Cl)cc4n23)c1 [Example 7, 8-Chloro-1-(2-chloro-5-methoxy-phenyl)-4-methyl-[1,2,4]triazolo[4,3-a]quinoxaline]	0.104
Cc1nc2ccc(F)cc2n2c(-c3cc(C(F)(F)F)ccc3Cl)nnc12 [Example 57, 1-(2-Chloro-5-trifluoromethyl-phenyl)-8-fluoro-4-methyl-[1,2,4]triazolo[4,3-a]quinoxaline]	> 1
CCCCCCOc1ccc(C)c(-c2nnc3c(C)nc4cc(Cl)ccc4n23)c1 [Example 26, 7-Chloro-1-(5-hexyloxy-2-methyl-phenyl)-4-methyl-[1,2,4]triazolo[4,3-a]quinoxaline]	> 1
CCCCCCOc1ccc(C)c(-c2nnc3c(C)nc4ccc(Cl)cc4n23)c1 [Example 15, 8-Chloro-1-(5-hexyloxy-2-methyl-phenyl)-4-methyl-[1,2,4]triazolo[4,3-a]quinoxaline]	> 1
CCCCOc1ccc(F)c(-c2nnc3c(C)nc4ccc(Cl)cc4n23)c1 [Example 11, 1-(5-Butoxy-2-fluoro-phenyl)-8-chloro-4-methyl-[1,2,4]triazolo[4,3-a]quinoxaline]	> 1
CCCCCCOc1ccc(F)c(-c2nnc3c(C)nc4ccc(C(F)(F)F)cc4n23)c1 [Example 68, 1-(2-Fluoro-5-hexyloxy-phenyl)-4-methyl-8-trifluoromethyl-[1,2,4]triazolo[4,3-a]quinoxaline]	> 1
Cc1nc2ccc(Cl)cc2n2c(-c3cc(OCC(C)O)ccc3Cl)nnc12 (stereo not drawn) [Example 102, 1-[4-Chloro-3-(8-chloro-4-methyl-[1,2,4]triazolo[4,3-a]quinoxalin-1-yl)-phenoxy]-propan-2-ol]	0.611
Cc1nc2ccc(Cl)cc2n2c(-c3cc(O)ccc3Cl)nnc12 [Example 107, 4-Chloro-3-(8-chloro-4-methyl-[1,2,4]triazolo[4,3-a]quinoxalin-1-yl)-phenol]	0.013
CCCCOc1ccc(Cl)c(-c2nnc3c(C)nc4cc(Cl)ccc4n23)c1 [Example 23, 1-(5-Butoxy-2-chloro-phenyl)-7-chloro-4-methyl-[1,2,4]triazolo[4,3-a]quinoxaline]	> 1
Cc1nc2cc(OCc3ccc4ccccc4n3)ccc2n2c(-c3ccccc3Cl)nnc12 [Example 79, 1-(2-Chloro-phenyl)-4-methyl-7-(quinolin-2-ylmethoxy)-[1,2,4]triazolo[4,3-a]quinoxaline]	0.001
CCCCOc1ccc(C)c(-c2nnc3c(C)nc4cc(Cl)ccc4n23)c1 [Example 25, 1-(5-Butoxy-2-methyl-phenyl)-7-chloro-4-methyl-[1,2,4]triazolo[4,3-a]quinoxaline]	> 1
CCCCOc1ccc(F)c(-c2nnc3c(C)nc4ccc(F)cc4n23)c1 [Example 58, 1-(5-Butoxy-2-fluoro-phenyl)-8-fluoro-4-methyl-[1,2,4]triazolo[4,3-a]quinoxaline]	> 1
COc1ccccc1-c1nnc2c(C)nc3ccc(C(F)(F)F)cc3n12 [Example 63, 1-(2-Methoxy-phenyl)-4-methyl-8-trifluoromethyl-[1,2,4]triazolo[4,3-a]quinoxaline]	0.265
COc1ccc(Cl)c(-c2nnc3c(C)nc4ccc(F)cc4n23)c1 [Example 56, 1-(2-Chloro-5-methoxy-phenyl)-8-fluoro-4-methyl-[1,2,4]triazolo[4,3-a]quinoxaline]	0.279
Cc1ncccc1-c1nnc2c(C)nc3ccc(Cl)cc3n12 [Example 5, 8-Chloro-4-methyl-1-(2-methyl-pyridin-3-yl)-[1,2,4]triazolo[4,3-a]quinoxaline]	0.383
Cc1nc2ccccc2n2c(-c3cc(O)ccc3Cl)nnc12 [Example 50, 4-Chloro-3-(4-methyl-[1,2,4]triazolo[4,3-a]quinoxalin-1-yl)-phenol]	0.062
CC(=O)OCCCCOc1ccc(Cl)c(-c2nnc3c(C)nc4ccccc4n23)c1 [Example 89, Acetic acid 4-[4-chloro-3-(4-methyl-[1,2,4]triazolo[4,3-a]quinoxalin-1-yl)-phenoxy]-butyl ester]	> 1
CCCCOc1ccc(Cl)c(-c2nnc3c(C)nc4ccc(Cl)cc4n23)c1 [Example 12, 1-(5-Butoxy-2-chloro-phenyl)-8-chloro-4-methyl-[1,2,4]triazolo[4,3-a]quinoxaline]	> 1
Cc1nc2ccc(Cl)cc2n2c(-c3cc(OCCCC(F)(F)F)ccc3Cl)nnc12 [Example 16, 8-Chloro-1-[2-chloro-5-(4,4,4-trifluoro-butoxy)-phenyl]-4-methyl-[1,2,4]triazolo[4,3-a]quinoxaline]	> 1

biological target: T1, PDE10A; experiment: biochemical; settings: not given

SMILES	IC50 [µM]
Cc1nc2ccccc2n2c(-c3cc(OC[C@H](C)O)ccc3Cl)nnc12 [Example 103, (S) 1-[4-Chloro-3-(4-methyl-[1,2,4]triazolo[4,3-a]quinoxalin-1-yl)-phenoxy]-propan-2-ol]	> 1
Cc1nc2ccccc2n2c(-c3cc(OC[C@@H](C)O)ccc3Cl)nnc12 [Example 104, (R) 1-[4-Chloro-3-(4-methyl-[1,2,4]triazolo[4,3-a]quinoxalin-1-yl)-phenoxy]-propan-2-ol]	> 1
